Target: T1, human mAChR M1 (Homo sapiens, UniProt P11229)
T1 sequence (P11229 1-460): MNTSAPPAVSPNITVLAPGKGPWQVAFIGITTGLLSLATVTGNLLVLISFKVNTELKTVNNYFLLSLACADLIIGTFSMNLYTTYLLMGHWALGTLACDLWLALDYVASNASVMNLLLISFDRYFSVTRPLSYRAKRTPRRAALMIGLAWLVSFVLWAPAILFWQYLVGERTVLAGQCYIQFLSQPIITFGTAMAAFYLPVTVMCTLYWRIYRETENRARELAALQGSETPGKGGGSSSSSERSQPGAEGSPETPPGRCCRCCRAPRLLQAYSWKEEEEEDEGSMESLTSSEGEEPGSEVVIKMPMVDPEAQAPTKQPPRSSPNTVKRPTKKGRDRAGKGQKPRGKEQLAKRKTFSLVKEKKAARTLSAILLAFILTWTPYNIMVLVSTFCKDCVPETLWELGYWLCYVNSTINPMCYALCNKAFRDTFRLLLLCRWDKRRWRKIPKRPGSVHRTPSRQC
Experiment: mAChR M1 cell-based functional assay (calcium mobilization, PAM activity)
Conditions: CHO-K1 cells expressing hM1, calcium flux (Fluo-4); for EC50: concentration-dependent increase in the EC20 acetylcholine response; for Emax: potentiation of EC20 acetylcholine response
Source text: Chinese hamster ovary (CHO-K1) cells stably expressing rat (r)M1 were purchased from the American Type Culture Collection and cultured according to their indicated protocol. CHO cells stably expressing human (h)M2, hM3, and hM5 were described previously (Levey, et al., 1991); hM1 and hM4 cDNAs were purchased from Missouri S&T cDNA Resource; rM4 cDNA was provided by T. I. Bonner (National Institutes of Health, Bethesda, Md.). rM2 and rM3 were cloned from a rat brain cDNA library and sequence verified. hM1, rM2, rM3, hM4, and rM4 cDNAs were used to stably transfect CHO-K1 cells purchased from the American Type Culture Collection using Lipofectamine 2000. To make stable rM2, hM2, rM3, hM4, and rM4 cell lines for use in calcium mobilization assays, these cells also were stably transfected with a chimeric G-protein (Gqi5) (provided by B. R. Conklin, University of California, San Francisco) using Lipofectamine 2000. rM1, hM1, rM3, hM3, rM5, and hM5 cells were grown in Ham's F-12 medium containing 10% heat-inactivated fetal bovine serum (FBS), 20 mM HEPES, and 50 μg/mL G418 sulfate. rM2-Gqi5, hM2-Gqi5, and hM4-Gqi5 cells were grown in the same medium also containing 500 μg/mL Hygromycin B. Stable rM4-Gqi5 cells were grown in DMEM containing 10% heat-inactivated FBS, 20 mM HEPES, 400 μg/mL G418 sulfate, and 500 μg/mL Hygromycin B.
For high throughput measurement of agonist-evoked increases in intracellular calcium, CHO-K1 cells stably expressing muscarinic receptors were plated in growth medium lacking G418 and hygromycin at 15,000 cells/20 μL/well in Greiner 384-well black-walled, tissue culture (TC)-treated, clear-bottom plates (VWR). Cells were incubated overnight at 37° C. and 5% CO2. The next day, cells were washed using an ELX 405 (BioTek) with four washes (80 μL) of assay buffer then aspirated to 20 μL. Next, 20 μL of 16 μM Fluo-4/acetoxymethyl ester (Invitrogen, Carlsbad, Calif.) prepared as a 2.3 mM stock in DMSO and mixed in a 1:1 ratio with 10% (w/v) Pluronic F-127 and diluted in assay buffer was added to the wells and the cell plates were incubated for 50 min at 37° C. and 5% CO2. Dye was removed by washing with the ELX 405 (four 80 μL washes of assay buffer) then aspirated to 20 μL. Compound master plates were formatted in an 11 point CRC format (1:3 dilutions) in 100% DMSO with a starting concentration of 10 mM using the BRAVO liquid handler (Agilent). Test compound CRCs were then transferred to daughter plates (240 nL) using the Echo acoustic plate reformatter (Labcyte, Sunnyvale, Calif.) and then diluted into assay buffer (40 μL) to a 2× stock using a Thermo Fisher Combi (Thermo Fisher Scientific, Waltham, Mass.).
Calcium flux was measured using the Functional Drug Screening System (FDSS) 6000 (Hamamatsu Corporation, Tokyo, Japan) as an increase in the fluorescent static ratio. Compounds were applied to cells (20 μL, 2×) using the automated system of the FDSS 6000 at 4 s into the 300 s protocol and the data were collected at 1 Hz. At 144 s into the 300s protocol, 10 μL of an EC20 concentration of the muscarinic receptor agonist acetylcholine was added (5×), followed by the addition of 12 μL an EC80 concentration of acetylcholine at the 230 s time point (5×). Agonist activity was analyzed as a concentration-dependent increase in calcium mobilization upon compound addition. Emax values for agonist activity are expressed relative to the maximum for acetylcholine. Positive allosteric modulator activity was analyzed as a concentration-dependent increase in the EC20 acetylcholine response. Antagonist activity was analyzed as a concentration-dependent decrease in the EC80 acetylcholine response. Concentration-response curves were generated using a four-parameter logistical equation in XLfit curve fitting software (IDBS, Bridgewater, N.J.) for Excel (Microsoft, Redmond, Wash.) or Prism (GraphPad Software, Inc., San Diego, Calif.). […]

Compound | EC50 [nM] | Emax [%]
O=C(N[C@H]1CCCC[C@@H]1O)c1cc(Cc2ccc(-n3cccn3)cc2)cn2ncnc12 [compound 33, N-[(1S,2S)-2-hydroxycyclohexyl]-6-[(4-pyrazol-1-ylphenyl)methyl]-[1,2,4]triazolo[1,5-a]pyridine-8-carboxamide] | 604 | 87
Cn1cc(-c2ccc(Cc3cc(C(=O)NC4CCOCC4)c4ncnn4c3)cc2)cn1 [compound 34, 6-[[4-(1-methylpyrazol-4-yl)phenyl]methyl]-N-tetrahydropyran-4-yl-[1,2,4]triazolo[1,5-a]pyridine-8-carboxamide] | 3690 | 35
Cc1nc(-c2ccc(Cc3cc(C(=O)NC4CCOCC4)c4ncnn4c3)cc2)co1 [compound 35, 6-[[4-(2-methyloxazol-4-yl)phenyl]methyl]-N-tetrahydropyran-4-yl-[1,2,4]triazolo[1,5-a]pyridine-8-carboxamide] | 9360 | 31
O=C(NC1CCOCC1)c1cc(Cc2ccc(-n3cccn3)cc2)cn2ncnc12 [compound 36, 6-[(4-pyrazol-1-ylphenyl)methyl]-N-tetrahydropyran-4-yl-[1,2,4]triazolo[1,5-a]pyridine-8-carboxamide] |  | 47
Cn1ccc(-c2ccc(Cc3cc(C(=O)N[C@H]4CCCC[C@@H]4O)c4ncnn4c3)cn2)n1 [compound 37, N-[(1S,2S)-2-hydroxycyclohexyl]-6-[[6-(1-methylpyrazol-3-yl)-3-pyridyl]methyl]-[1,2,4]triazolo[1,5-a]pyridine-8-carboxamide] | 3540 | 83
Cn1ccc(-c2cc(F)c(Cc3cc(C(=O)N[C@H]4CCOC[C@@H]4O)c4nccn4c3)c(F)c2)n1 [compound 38, 6-[[2,6-difluoro-4-(1-methylpyrazol-3-yl)phenyl]methyl]-N-[(3R,4S)-3-hydroxytetrahydropyran-4-yl]imidazo[1,2-a]pyridine-8-carboxamide] | 507 | 69
Cn1ccc(-c2cc(F)c(Cc3cc(C(=O)N[C@H]4CCCC[C@@H]4O)c4nccn4c3)c(F)c2)n1 [compound 39, 6-[[2,6-difluoro-4-(1-methylpyrazol-3-yl)phenyl]methyl]-N-[(1S,2S)-2-hydroxycyclohexyl]imidazo[1,2-a]pyridine-8-carboxamide] | 558 | 58
Cn1cc(-c2cc(F)c(Cc3cc(C(=O)N[C@H]4CCCC[C@@H]4O)c4nccn4c3)c(F)c2)cn1 [compound 40, 6-[[2,6-difluoro-4-(1-methylpyrazol-4-yl)phenyl]methyl]-N-[(1S,2S)-2-hydroxycyclohexyl]imidazo[1,2-a]pyridine-8-carboxamide] | 751 | 58
Cn1ccc(-c2cc(F)c(Cc3cc(C(=O)N[C@H]4CCOC[C@@H]4O)c4ncnn4c3)c(F)c2)n1 [compound 41, 6-[[2,6-difluoro-4-(1-methylpyrazol-3-yl)phenyl]methyl]-N-[(3R,4S)-3-hydroxytetrahydropyran-4-yl]-[1,2,4]triazolo[1,5-a]pyridine-8-carboxamide] | 1200 | 76
Cn1ccc(-c2cc(F)c(Cc3cc(C(=O)N[C@H]4CCCC[C@@H]4O)c4ncnn4c3)c(F)c2)n1 [compound 42, 6-[[2,6-difluoro-4-(1-methylpyrazol-3-yl)phenyl]methyl]-N-[(1S,2S)-2-hydroxycyclohexyl]-[1,2,4]triazolo[1,5-a]pyridine-8-carboxamide] | 936 | 83
Cn1cc(-c2cc(F)c(Cc3cc(C(=O)N[C@H]4CCOC[C@@H]4O)c4ncnn4c3)c(F)c2)cn1 [compound 43, 6-[[2,6-difluoro-4-(1-methylpyrazol-4-yl)phenyl]methyl]-N-[(3R,4S)-3-hydroxytetrahydropyran-4-yl]-[1,2,4]triazolo[1,5-a]pyridine-8-carboxamide] | 691 | 84
Cn1cc(-c2cc(F)c(Cc3cc(C(=O)N[C@H]4CCCC[C@@H]4O)c4ncnn4c3)c(F)c2)cn1 [compound 44, 6-[[2,6-difluoro-4-(1-methylpyrazol-4-yl)phenyl]methyl]-N-[(1S,2S)-2-hydroxycyclohexyl]-[1,2,4]triazolo[1,5-a]pyridine-8-carboxamide] | 387 | 82
Cn1ccc(-c2ccc(Cc3cc(C(=O)N[C@H]4CCOC[C@@H]4O)c4ncnn4c3)c(F)c2)n1 [compound 45, 6-[[2-fluoro-4-(1-methylpyrazol-3-yl)phenyl]methyl]-N-[(3R,4S)-3-hydroxytetrahydropyran-4-yl]-[1,2,4]triazolo[1,5-a]pyridine-8-carboxamide] | 693 | 82
Cn1ccc(-c2ccc(Cc3cc(C(=O)N[C@H]4CCCC[C@@H]4O)c4ncnn4c3)c(F)c2)n1 [compound 46, 6-[[2-fluoro-4-(1-methylpyrazol-3-yl)phenyl]methyl]-N-[(1S,2S)-2-hydroxycyclohexyl]-[1,2,4]triazolo[1,5-a]pyridine-8-carboxamide] | 742 | 79
Cn1cc(-c2ccc(Cc3cc(C(=O)N[C@H]4CCOC[C@@H]4O)c4ncnn4c3)c(F)c2)cn1 [compound 47, 6-[[2-fluoro-4-(1-methylpyrazol-4-yl)phenyl]methyl]-N-[(3R,4S)-3-hydroxytetrahydropyran-4-yl]-[1,2,4]triazolo[1,5-a]pyridine-8-carboxamide] | 404 | 77
Cn1cc(-c2ccc(Cc3cc(C(=O)N[C@H]4CCCC[C@@H]4O)c4ncnn4c3)c(F)c2)cn1 [compound 48, 6-[[2-fluoro-4-(1-methylpyrazol-4-yl)phenyl]methyl]-N-[(1S,2S)-2-hydroxycyclohexyl]-[1,2,4]triazolo[1,5-a]pyridine-8-carboxamide] | 229 | 76
Cn1cc(-c2cc(F)c(Cc3cc(C(=O)N[C@H]4CCOC[C@@H]4O)c4nccn4c3)c(F)c2)cn1 [compound 49, 6-[[2,6-difluoro-4-(1-methylpyrazol-4-yl)phenyl]methyl]-N-[(3R,4S)-3-hydroxytetrahydropyran-4-yl]imidazo[1,2-a]pyridine-8-carboxamide] | 474 | 67
Cc1c(Cc2ccc(-c3ccn(C)n3)cc2)cc(C(=O)N[C@H]2CCOC[C@@H]2O)c2nccn12 [compound 50, N-[(3R,4S)-3-hydroxytetrahydropyran-4-yl]-5-methyl-6-[[4-(1-methylpyrazol-3-yl)phenyl]methyl]imidazo[1,2-a]pyridine-8-carboxamide] | 24.6 | 53

From patent US20200131180A1, “POSITIVE ALLOSTERIC MODULATORS OF THE MUSCARINIC ACETYLCHOLINE RECEPTOR M1” (Vanderbilt University, priority 2018, published 2020)
